Assay results from the supplement of paper PMC10331698.
± gives the standard deviation of the averaged measurements.

How the values were obtained:
[1] = compound: T1, C=CC(=O)OCC(F)(F)C(F)(F)C(F)(F)COC(=O)C=C [1H,1H,5H,5H-Perfluoro-1,5-pentanediol diacrylate]; assay: LOEC (log10 uM (lowest observed effect concentration))
Procedure: (§1)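 BioMAP Diversity Plus panel in human primary cell co-cultures, 4 concentrations in duplicate blinded samples. Responses are log10 fold change versus DMSO control, processed with tcpl v2.1.0. A hit is called when responses at any concentration exceed the cutoff (the larger of 3*bmad or log10(1.2)); the lowest observed effect concentration (modl_ga, log10 uM) is reported for hits.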

[2] = compound: T2, O=C(O)C(F)(F)C(F)(F)C(F)(F)C(F)(F)C(F)(F)C(F)(F)C(F)(F)C(F)(F)C(F)(F)C(F)F [11-H-Perfluoroundecanoic acid]; assay: as above
Procedure: as §1

Heptafluorobutyl iodide = compound: FC(F)(F)C(F)(F)C(F)(F)CI [Heptafluorobutyl iodide]; assay: level (log10 ratio to DMSO vehicle control); higher = higher biomarker level / cell amount than vehicle control; conditions: in DMSO
Procedure: (§2)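 BioMAP Diversity Plus panel of 12 human primary cell co-culture systems (3C, 4H, LPS, SAg, BT, BF4T, BE3C, CASM3C, HDF3CGF, KF3CT, MyoF, Mphg). Compounds were added 1 h before stimulation and left for 24 h (MyoF 48 h; BT 72 h for soluble read-outs or 6 d for IgG). Biomarkers were read by ELISA, cytotoxicity by SRB, PBMC viability and proliferation by Alamar Blue. Each well value was divided by the mean of 8 DMSO control wells on the same plate and log10 transformed; duplicate blinded samples were tested at 4 concentrations.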

[3] = compound: O=S(=O)(O)C(F)(F)C(F)(F)C(F)(F)C(F)(F)C(F)(F)C(F)(F)C(F)(F)C(F)(F)C(F)(F)C(F)(F)F [Sodium perfluorodecanesulfonate]; assay: as above; conditions: in DMSO
Procedure: as §2

Octafluoroadipamide = compound: NC(=O)C(F)(F)C(F)(F)C(F)(F)C(F)(F)C(N)=O [Octafluoroadipamide]; assay: as above; conditions: in DMSO
Procedure: as §2

[4] = compound: O=S(=O)(O)CCC(F)(F)C(F)(F)C(F)(F)C(F)(F)C(F)(F)C(F)(F)F [6:2 Fluorotelomer sulfonic acid]; assay: as above; conditions: in DMSO
Procedure: as §2

[5] = compound: COC(=O)C(F)(F)C(F)(F)OC(F)(C(F)(F)F)C(F)(F)OC(F)=C(F)F [Methyl perfluoro(3-(1-ethenyloxypropan-2-yloxy)propanoate)]; assay: as above; conditions: in DMSO
Procedure: as §2

[6] = compound: NC(=O)C(F)(F)C(F)(F)C(F)(F)C(F)F; assay: as above; conditions: in DMSO
Procedure: as §2

[7] = compound: T1, 1H,1H,5H,5H-Perfluoro-1,5-pentanediol diacrylate; assay: as above; conditions: 6700 nM; in DMSO
Procedure: as §2

[8] = compound: NS(=O)(=O)C(F)(F)C(F)(F)C(F)(F)C(F)(F)C(F)(F)C(F)(F)F [Perfluorohexanesulfonamide]; assay: as above; conditions: in DMSO
Procedure: as §2

[9] = compound: O=C(O)C=CC(F)(C(F)(F)F)C(F)(F)F [3-(Perfluoroisopropyl)-2-propenoic acid]; assay: as above; conditions: in DMSO
Procedure: as §2

Hexafluoroamylene glycol = compound: OCC(F)(F)C(F)(F)C(F)(F)CO [Hexafluoroamylene glycol]; assay: as above; conditions: in DMSO
Procedure: as §2

[10] = compound: FC(F)(F)C(F)(F)C(F)(F)C(F)(F)C(F)(F)C(F)(F)CC1CO1 [3-(Perfluorohexyl)-1,2-epoxypropane]; assay: as above; conditions: in DMSO
Procedure: as §2

[11] = compound: O=S(=O)(Cl)C(F)(F)C(F)(F)C(F)(F)C(F)(F)C(F)(F)C(F)(F)C(F)(F)C(F)(F)F [Perfluoro-1-octanesulfonyl chloride]; assay: as above; conditions: in DMSO
Procedure: as §2

[12] = compound: FC(F)(F)C(F)(F)C(F)(F)CC1CO1 [1H,1H-Heptafluorobutyl epoxide]; assay: as above; conditions: in DMSO
Procedure: as §2

[13] = compound: C=C(C)C(=O)OCCC(F)(F)C(F)(F)C(F)(F)C(F)(F)C(F)(F)C(F)(F)F [6:2 Fluorotelomer methacrylate]; assay: as above; conditions: in DMSO
Procedure: as §2

[14] = compound: FC(F)(F)C(F)(F)CNCC(F)(F)C(F)(F)F [Bis(1H,1H-perfluoropropyl)amine]; assay: as above; conditions: in DMSO
Procedure: as §2

Nonafluoropentanamide = compound: NC(=O)C(F)(F)C(F)(F)C(F)(F)C(F)(F)F [Nonafluoropentanamide]; assay: as above; conditions: in DMSO
Procedure: as §2

[15] = compound: T2, 11-H-Perfluoroundecanoic acid; assay: as above; conditions: in DMSO
Procedure: as §2

[16] = compound: O=S(=O)(F)C(F)(F)C(F)(F)C(F)(F)C(F)(F)C(F)(F)C(F)(F)C(F)(F)C(F)(F)F [Perfluorooctanesulfonyl fluoride]; assay: as above; conditions: in DMSO
Procedure: as §2

[17] = compound: FC(F)(F)C(F)(F)C(F)(F)C(F)(F)C(F)(F)C(F)(F)C(F)(F)I [1-Iodopentadecafluoroheptane]; assay: as above; conditions: in DMSO
Procedure: as §2

3C Eselectin down
LOEC (log10 uM) [1]: 0.573 ± 0.39

SAg MIG down
LOEC (log10 uM) [1]: 1.3

BF4T MMP3 down
LOEC (log10 uM) [2]: 1.78

CASM3C MCSF down
LOEC (log10 uM) [1]: 1.3

BT sIgG down
LOEC (log10 uM) [1]: 0.845

CASM3C Proliferation down
LOEC (log10 uM) [1]: 0.573 ± 0.39

SAg PBMCCytotoxicity down
LOEC (log10 uM) [1]: 0.845

LPS MCSF down
LOEC (log10 uM) [1]: 1.3

CASM3C SAA down
LOEC (log10 uM) [1]: 1.78

CASM3C IL8 down
LOEC (log10 uM) [1]: 1.3

CASM3C HLADR down
LOEC (log10 uM) [1]: 1.3

KF3CT TIMP2 down
LOEC (log10 uM) [1]: 1.78

MyoF TIMP1 down
LOEC (log10 uM) [1]: 1.3

KF3CT IL8 down
LOEC (log10 uM) [1]: 1.3

BT xIL6 down
LOEC (log10 uM) [1]: 0.573 ± 0.39

BE3C Keratin818 down
LOEC (log10 uM) [2]: 1.54 ± 0.34

CASM3C VCAM1 down
LOEC (log10 uM) [1]: 0.845

IMphg MIP1a down
LOEC (log10 uM) [1]: 1.78

4H MCP1 down
LOEC (log10 uM) [1]: 1.3

CASM3C MIG down
LOEC (log10 uM) [1]: 0.845

hDFCGF IL8 down
LOEC (log10 uM) [1]: 0.845

BT Bcell Proliferation down
LOEC (log10 uM) [1]: 0.845

KF3CT ICAM1 down
LOEC (log10 uM) [1]: 1.07 ± 0.32

IMphg IL8 down
LOEC (log10 uM) [1]: 1.78

MyoF bFGF down
LOEC (log10 uM) [1]: 1.3

LPS TissueFactor down
LOEC (log10 uM) [1]: 1.07 ± 0.32

BT xIL17A down
LOEC (log10 uM) [1]: 0.845

LPS TNFa down
LOEC (log10 uM) [1]: 1.3

MyoF Decorin down
LOEC (log10 uM) [1]: 1.3

CASM3C Thrombomodulin up
LOEC (log10 uM) [1]: 1.3

hDFCGF ICAM1 down
LOEC (log10 uM) [1]: 0.301

3C ICAM1 down
LOEC (log10 uM) [1]: 1.3

CASM3C MCP1 down
LOEC (log10 uM) [1]: 1.78

LPS IL1a down
LOEC (log10 uM) [1]: 1.3

MyoF IL8 down
LOEC (log10 uM) [1]: 1.3

BT xIL2 down
LOEC (log10 uM) [1]: 0.845

4H uPAR down
LOEC (log10 uM) [1]: 1.04 ± 1

hDFCGF MMP1 down
LOEC (log10 uM) [1]: 0.845

4H Pselectin down
LOEC (log10 uM) [1]: 1.3

CASM3C PAI1 down
LOEC (log10 uM) [1]: 1.78

3C IL8 down
LOEC (log10 uM) [1]: 1.3

BT xTNFa down
LOEC (log10 uM) [1]: 0.301

BT xIL17F down
LOEC (log10 uM) [1]: 0.301

BT PBMCCytotoxicity down
LOEC (log10 uM) [1]: 0.573 ± 0.39

CASM3C LDLR down
LOEC (log10 uM) [1]: 1.78

CASM3C SRB down
LOEC (log10 uM) [1]: 1.54 ± 0.34

3C TissueFactor down
LOEC (log10 uM) [1]: 0.845

hDFCGF TIMP1 down
LOEC (log10 uM) [1]: 0.573 ± 0.39

CASM3C IL6 down
LOEC (log10 uM) [1]: 1.3

CASM3C uPAR down
LOEC (log10 uM) [1]: 1.78

3C MIG down
LOEC (log10 uM) [1]: 1.3

hDFCGF SRB down
LOEC (log10 uM) [1]: 0.573 ± 0.39

HDF3CGF:TIMP-1
level (log10) (Heptafluorobutyl iodide; 6700 nM): -0.0195 ± 0.037 | level (log10) (Heptafluorobutyl iodide; 20000 nM): -0.019 ± 0.0085 | level (log10) (Heptafluorobutyl iodide; 60000 nM): -0.059 ± 0.025 | level (log10) ([3]; 1500 nM): -0.0355 ± 0.04 | level (log10) ([3]; 4400 nM): 0.0065 ± 0.0035 | level (log10) ([3]; 13000 nM): 0.0265 ± 0.042 | level (log10) ([3]; 40000 nM): 0.156 ± 0.016 | level (log10) (Octafluoroadipamide; 6700 nM): 0.002 ± 0.0071 | level (log10) (Octafluoroadipamide; 20000 nM): 0.0015 ± 0.012 | level (log10) (Octafluoroadipamide; 60000 nM): 0.0035 ± 0.021 | level (log10) ([4]; 6700 nM): 0.0225 ± 0.08 | level (log10) ([4]; 20000 nM): -0.0045 ± 0.076 | level (log10) ([4]; 60000 nM): 0.0175 ± 0.13 | level (log10) ([5]; 6700 nM): 0.0565 ± 0.011 | level (log10) ([5]; 20000 nM): 0.117 ± 0.021 | level (log10) ([6]; 6700 nM): -0.0005 ± 0.0064 | level (log10) ([6]; 20000 nM): -0.0095 ± 0.043 | level (log10) ([6]; 60000 nM): 0.0045 ± 0.039 | level (log10) [7]: -0.245 ± 0.011 | level (log10) ([8]; 6700 nM): 0.0235 ± 0.0078 | level (log10) ([8]; 20000 nM): 0.048 ± 0.021 | level (log10) ([8]; 60000 nM): 0.05 ± 0.017 | level (log10) ([9]; 6700 nM): -0.006 ± 0.014 | level (log10) ([9]; 20000 nM): 0.0105 ± 0.015 | level (log10) ([9]; 60000 nM): 0.007 ± 0.0057 | level (log10) (Hexafluoroamylene glycol; 6700 nM): -0.0155 ± 0.05 | level (log10) (Hexafluoroamylene glycol; 20000 nM): -0.0145 ± 0.06 | level (log10) (Hexafluoroamylene glycol; 60000 nM): -0.017 ± 0.1 | level (log10) ([10]; 6700 nM): 0.0085 ± 0.025 | level (log10) ([10]; 20000 nM): 0.0265 ± 0.025 | level (log10) ([10]; 60000 nM): 0.0305 ± 0.012 | level (log10) ([11]; 6700 nM): 0.016 ± 0.038 | level (log10) ([11]; 20000 nM): 0.053 ± 0.0057 | level (log10) ([11]; 60000 nM): 0.139 ± 0.016 | level (log10) ([12]; 6700 nM): -0.0015 ± 0.067 | level (log10) ([12]; 20000 nM): 0.015 ± 0.068 | level (log10) ([12]; 60000 nM): -0.0025 ± 0.071 | level (log10) ([13]; 6700 nM): -0.049 ± 0.028 | level (log10) ([13]; 20000 nM): -0.0115 ± 0.0078 | level (log10) ([13]; 60000 nM): -0.0055 ± 0.0035 | level (log10) ([14]; 6700 nM): 0 ± 0.0099 | level (log10) ([14]; 20000 nM): -0.0525 ± 0.049 | level (log10) ([14]; 60000 nM): 0.011 ± 0.0071 | level (log10) (Nonafluoropentanamide; 6700 nM): 0.0155 ± 0.059 | level (log10) (Nonafluoropentanamide; 20000 nM): 0.0025 ± 0.05 | level (log10) (Nonafluoropentanamide; 60000 nM): 0.0015 ± 0.0064 | level (log10) ([15]; 6700 nM): 0.0005 ± 0.096 | level (log10) ([15]; 20000 nM): 0.1 ± 0.072 | level (log10) ([16]; 6700 nM): -0.0065 ± 0.00071 | level (log10) ([16]; 20000 nM): 0.002 ± 0.0042 | level (log10) ([16]; 60000 nM): -0.007 ± 0.0085 | level (log10) ([17]; 6700 nM): -0.0185 ± 0.0021 | level (log10) ([17]; 20000 nM): -0.024 ± 0.0042
